pIC50: −log10 of the molar value.
Each compound was assayed against HDAC2 (Homo sapiens, UniProt Q92769) (assay: HDAC2 fluorescence inhibition assay (tBoc-Lys(Ac)-AMC)).
Chain of HDAC2 (Q92769 with tags, fused parts or gaps): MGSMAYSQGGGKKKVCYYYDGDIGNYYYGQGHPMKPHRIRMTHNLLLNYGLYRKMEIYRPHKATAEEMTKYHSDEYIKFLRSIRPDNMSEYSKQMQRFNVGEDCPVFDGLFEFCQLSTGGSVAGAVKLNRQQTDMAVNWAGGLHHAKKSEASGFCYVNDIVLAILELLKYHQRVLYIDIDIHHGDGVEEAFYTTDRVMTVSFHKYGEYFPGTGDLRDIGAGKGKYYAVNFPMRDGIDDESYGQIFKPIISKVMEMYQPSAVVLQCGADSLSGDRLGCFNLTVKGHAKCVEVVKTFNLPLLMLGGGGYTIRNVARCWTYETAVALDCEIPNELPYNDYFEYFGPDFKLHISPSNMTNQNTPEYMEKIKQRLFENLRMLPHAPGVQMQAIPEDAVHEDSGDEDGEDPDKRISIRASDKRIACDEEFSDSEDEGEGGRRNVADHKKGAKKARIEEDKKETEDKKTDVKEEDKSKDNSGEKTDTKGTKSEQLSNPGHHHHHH

pIC50	SMILES
7.00 to 7.30	Nc1ccccc1NC(=O)c1ccc(Cn2ncc3cc(F)ccc32)cc1 [Example 37, N-(2-aminophenyl)-4-((5-fluoro-1H-indazol-1-yl)methyl)benzamide]
7.00 to 7.30	CC(=O)Nc1ccc2c(c1)c(N)nn2Cc1ccc(C(=O)Nc2ccccc2N)cc1 [Example 105, 4-((5-acetamido-3-amino-1H-indazol-1-yl)methyl)-N-(2-aminophenyl)benzamide]
≥ 7.30	CN(C)CCCNC(=O)c1cnn(Cc2ccc(C(=O)Nc3ccccc3N)cc2)c1 [Example 144, 1-(4-(2-aminophenylcarbamoyl)benzyl)-N-(3-(dimethylamino)propyl)-1H-pyrazole-4-carboxamide]
≥ 7.30	Cc1nn(Cc2ccc(C(=O)Nc3ccccc3N)cc2)c2cc(O)ccc12 [Example 74, N-(2-aminophenyl)-4-((6-hydroxy-3-methyl-1H-indazol-1-yl)methyl)benzamide]
7.00 to 7.30	Nc1ccccc1NC(=O)c1ccc(Cn2cc3ccccc3n2)cc1 [Example 2, 4-((2H-indazol-2-yl)methyl)-N-(2-aminophenyl)benzamide]
≥ 7.30	COc1ccc2c(cnn2Cc2ccc(C(=O)Nc3ccccc3N)cc2)c1 [Example 78, N-(2-aminophenyl)-4-((5-methoxy-1H-indazol-1-yl)methyl)benzamide]
6.30 to 7.00	Cc1cc(C)n(Cc2ccc(C(=O)Nc3ccccc3N)cc2)n1 [Example 124, N-(2-aminophenyl)-4-((3,5-dimethyl-1H-pyrazol-1-yl)methyl)benzamide]
7.00 to 7.30	CN1CCN(CCCNC(=O)c2cnn(Cc3ccc(C(=O)Nc4ccccc4N)cc3)c2)CC1 [Example 156, 1-(4-(2-aminophenylcarbamoyl)benzyl)-N-(3-(4-methylpiperazin-1-yl)propyl)-1H-pyrazole-4-carboxamide]
7.00 to 7.30	Cc1c2ccc(C(F)(F)F)cc2nn1Cc1ccc(C(=O)Nc2ccccc2N)cc1 [Example 92, N-(2-aminophenyl)-4-((3-methyl-6-(trifluoromethyl)-2H-indazol-2-yl)methyl)benzamide]
7.00 to 7.30	Nc1ccccc1NC(=O)c1ccc(Cn2nc3ccccc3n2)cc1 [Example 101, 4-((2H-benzo[d][1,2,3]triazol-2-yl)methyl)-N-(2-aminophenyl)benzamide]
≥ 7.30	COc1ccc2c(C)n(Cc3ccc(C(=O)Nc4ccccc4N)cc3)nc2c1 [Example 67, N-(2-aminophenyl)-4-((6-methoxy-3-methyl-2H-indazol-2-yl)methyl)benzamide]
≥ 7.30	Nc1ccccc1NC(=O)c1ccc(Cn2ncc3cc(NC(=O)OCc4cccnc4)ccc32)cc1 [Example 23, Pyridin-3-ylmethyl 1-(4-((2-aminophenyl)carbamoyl)benzyl)-1H-indazol-5-ylcarbamate]
≥ 7.30	Nc1ccccc1NC(=O)c1ccc(Cn2ncc3cc(NC(=O)OCc4ccccc4)ccc32)cc1 [Example 15, Benzyl 1-(4-((2-aminophenyl)carbamoyl)benzyl)-1H-indazol-5-ylcarbamate]
6.30 to 7.00	Cc1cnn(Cc2ccc(C(=O)Nc3ccccc3N)cc2)c1 [Example 34, N-(2-aminophenyl)-4-((4-methyl-1H-pyrazol-1-yl)methyl)benzamide]
7.00 to 7.30	Nc1ccccc1NC(=O)c1ccc(Cn2cc3ccc(F)cc3n2)cc1 [Example 35, N-(2-aminophenyl)-4-((6-fluoro-2H-indazol-2-yl)methyl)benzamide]
7.00 to 7.30	CCOC(=O)c1cnn(Cc2ccc(C(=O)Nc3ccccc3N)cc2)c1 [Example 125, Ethyl 1-(4-(2-aminophenylcarbamoyl)benzyl)-1H-pyrazole-4-carboxylate]
7.00 to 7.30	CC(c1ccc(C(=O)Nc2ccccc2N)cc1)n1cc2ccccc2n1 (stereo not shown) [Example 109, 4-(1-(2H-indazol-2-yl)ethyl)-N-(2-aminophenyl)benzamide]
7.00 to 7.30	Nc1ccccc1NC(=O)c1ccc(Cn2ncc3c(F)cccc32)cc1 [Example 48, N-(2-aminophenyl)-4-((4-fluoro-1H-indazol-1-yl)methyl)benzamide]
≥ 7.30	Cc1c2cc(C(F)(F)F)ccc2nn1Cc1ccc(C(=O)Nc2ccccc2N)cc1 [Example 95, N-(2-aminophenyl)-4-((3-methyl-5-(trifluoromethyl)-2H-indazol-2-yl)methyl)benzamide]
7.00 to 7.30	Nc1ccccc1NC(=O)c1ccc(Cn2cc3c(C(F)(F)F)cccc3n2)cc1 [Example 118, N-(2-aminophenyl)-4-((4-(trifluoromethyl)-2H-indazol-2-yl)methyl)benzamide]
≥ 7.30	Nc1ccccc1NC(=O)c1ccc(Cn2ncc3cc([N+](=O)[O-])ccc32)cc1 [Example 5, N-(2-aminophenyl)-4-((5-nitro-1H-indazol-1-yl)methyl)benzamide]
≤ 6.30	Nc1ncncc1NC(=O)c1ccc(Cn2cc3ccccc3n2)cc1 [Example 104, 4-((2H-indazol-2-yl)methyl)-N-(4-aminopyrimidin-5-yl)benzamide]
≥ 7.30	Nc1ccccc1NC(=O)c1ccc(Cn2nc3ccccc3c2Cl)cc1 [Example 61, N-(2-aminophenyl)-4-((3-chloro-2H-indazol-2-yl)methyl)benzamide]

pIC50	SMILES
6.30 to 7.00	Nc1ccn(Cc2ccc(C(=O)Nc3ccccc3N)cc2)n1 [Example 133, 4-((3-amino-1H-pyrazol-1-yl)methyl)-N-(2-aminophenyl)benzamide]
6.30 to 7.00	Nc1ccccc1NC(=O)c1ccc(Cn2ncc3ccccc32)s1 [Example 24, 5-((1H-Indazol-1-yl)methyl)-N-(2-aminophenyl)thiophene-2-carboxamide]
7.00 to 7.30	Cc1nn(Cc2ccc(C(=O)Nc3ccccc3N)cc2)c2ccc(C(F)(F)F)cc12 [Example 94, N-(2-aminophenyl)-4-((3-methyl-5-(trifluoromethyl)-1H-indazol-1-yl)methyl)benzamide]
7.00 to 7.30	Cc1ccc2c(c1)c(C)nn2Cc1ccc(C(=O)Nc2ccccc2N)cc1 [Example 80, N-(2-aminophenyl)-4-((3,5-dimethyl-1H-indazol-1-yl)methyl)benzamide]
7.00 to 7.30	CC(=O)Nc1ccc2c(c1)c(C)nn2Cc1ccc(C(=O)Nc2ccccc2N)cc1 [Example 107, 4-((5-acetamido-3-methyl-1H-indazol-1-yl)methyl)-N-(2-aminophenyl)benzamide]
6.30 to 7.00	Cc1nn(Cc2ccc(C(=O)Nc3ccccc3N)cc2)c2cccc(F)c12 [Example 54, N-(2-aminophenyl)-4-((4-fluoro-3-methyl-1H-indazol-1-yl)methyl)benzamide]
≥ 7.30	Nc1ccccc1NC(=O)c1ccc(Cn2ncc3cc(NC(=O)c4ccccc4)ccc32)cc1 [Example 6, 4-((5-benzamido-1H-indazol-1-yl)methyl)-N-(2-aminophenyl)benzamide]
7.00 to 7.30	Nc1ccccc1NC(=O)c1ccc(Cc2c[nH]c3ccccc23)cc1 [Example 158, 4-((1H-Indol-3-yl)methyl)-N-(2-aminophenyl)benzamide]
≥ 7.30	Nc1ccccc1NC(=O)c1ccc(Cn2cc(C(=O)NCCN3CCCCC3)cn2)cc1 [Example 155, 1-(4-(2-aminophenylcarbamoyl)benzyl)-N-(2-(piperidin-1-yl)ethyl)-1H-pyrazole-4-carboxamide]
7.00 to 7.30	COc1cc2nn(Cc3ccc(C(=O)Nc4ccccc4N)cc3)cc2cc1O [Example 97, N-(2-aminophenyl)-4-((5-hydroxy-6-methoxy-2H-indazol-2-yl)methyl)benzamide]
6.30 to 7.00	CN(C)C(=O)c1cnn(Cc2ccc(C(=O)Nc3ccccc3N)cc2)c1 [Example 136, 1-(4-(2-aminophenylcarbamoyl)benzyl)-N,N-dimethyl-1H-pyrazole-4-carboxamide]
≥ 7.30	COc1cc2cnn(Cc3ccc(C(=O)Nc4ccccc4N)cc3)c2cc1OC [Example 99, N-(2-aminophenyl)-4-((5,6-dimethoxy-1H-indazol-1-yl)methyl)benzamide]
≥ 7.30	Nc1ccc(-c2ccccc2)cc1NC(=O)c1ccc(Cn2cc3cccnc3n2)cc1 [Example 26, N-(4-Amino-biphenyl-3-yl)-4-pyrazolo[3,4-b]pyridin-2-ylmethyl-benzamide]
6.30 to 7.00	Nc1ccccc1NC(=O)c1ccc(CCn2ncc3ccccc32)cc1 [Example 40, 4-(2-(1H-indazol-1-yl)ethyl)-N-(2-aminophenyl)benzamide]
7.00 to 7.30	Nc1ccccc1NC(=O)c1ccc(CCn2cc3ccccc3n2)cc1 [Example 41, 4-(2-(2H-indazol-2-yl)ethyl)-N-(2-aminophenyl)benzamide]
≥ 7.30	COc1ccc2nn(Cc3ccc(C(=O)Nc4ccccc4N)cc3)cc2c1 [Example 79, N-(2-aminophenyl)-4-((5-methoxy-2H-indazol-2-yl)methyl)benzamide]
≥ 7.30	CC(=O)Nc1ccc2cn(Cc3ccc(C(=O)Nc4ccccc4N)cc3)nc2c1 [Example 90, 4-((6-acetamido-2H-indazol-2-yl)methyl)-N-(2-aminophenyl)benzamide]
7.00 to 7.30	Nc1ccccc1NC(=O)c1ccc(Cn2ncc3cc(C(F)(F)F)ccc32)cc1 [Example 119, N-(2-aminophenyl)-4-((5-(trifluoromethyl)-1H-indazol-1-yl)methyl)benzamide]
≥ 7.30	Nc1ccc(-c2cccs2)cc1NC(=O)c1ccc(Cn2cc3ccccc3n2)cc1 [Example 111, 4-((2H-indazol-2-yl)methyl)-N-(2-amino-5-(thiophen-2-yl)phenyl)benzamide]
7.00 to 7.30	Cc1c2cccc(C(F)(F)F)c2nn1Cc1ccc(C(=O)Nc2ccccc2N)cc1 [Example 91, N-(2-aminophenyl)-4-((3-methyl-7-(trifluoromethyl)-2H-indazol-2-yl)methyl)benzamide]
7.00 to 7.30	CN(C)CCNC(=O)c1cnn(Cc2ccc(C(=O)Nc3ccccc3N)cc2)c1 [Example 140, 1-(4-(2-aminophenylcarbamoyl)benzyl)-N-(2-(dimethylamino)ethyl)-1H-pyrazole-4-carboxamide]
≥ 7.30	Nc1ccccc1NC(=O)c1ccc(Cn2cc3cc([N+](=O)[O-])ccc3n2)cc1 [Example 8, N-(2-aminophenyl)-4-((5-nitro-2H-indazol-2-yl)methyl)benzamide]
7.00 to 7.30	COCCNC(=O)c1cnn(Cc2ccc(C(=O)Nc3ccccc3N)cc2)c1 [Example 151, 1-(4-(2-aminophenylcarbamoyl)benzyl)-N-(2-methoxyethyl)-1H-pyrazole-4-carboxamide]

Reference: patent US7732475B2, “Histone deacetylase inhibitors” (Takeda San Diego, Inc., priority 2005, dated 2010)
